Patent US9695155B2, “Herbicidal substituted pyrimidinyloxy benzene compounds” (E. I. DU PONT DE NEMOURS AND COMPANY, priority 2013, dated 2017)

What was measured:
[1] = test system: Italian ryegrass; assay: Test C postemergence; format: in vivo, Lolium multiflorum
Outline: (§1)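 Whole-plant greenhouse test with surfactant-containing solvent formulation, applied preemergence to sown loam–sand pots or postemergence to 2–18 cm plants. Scored by eye 13 to 15 days on, 0–100 scale.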

[2] = test system: velvetleaf; assay: Test C preemergence; format: in vivo, Abutilon theophrasti; details: preemergence
Outline: as §1

[3] = test system: pigweed; assay: Test C postemergence; format: in vivo, Amaranthus retroflexus
Outline: as §1

[4] = test system: wild oat; assay: Test C postemergence; format: in vivo, Avena fatua
Outline: as §1

[5] = test system: pigweed; assay: Test C preemergence; format: in vivo, Amaranthus retroflexus; details: preemergence
Outline: as §1

[6] = test system: corn; assay: Test A preemergence; format: in vivo, Zea mays; details: 0 to 100 scale where 0 is no effect and 100 is complete control
Outline: (§2)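 Compounds in non-phytotoxic solvent with surfactant applied as soil spray preemergence, or postemergence to plants 2-10 cm at one- to two-leaf stage, in loam/sand. After approximately 10 days in greenhouse, injury rated visually versus untreated controls, 0 (no effect) to 100 (complete control).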

[7] = test system: lambsquarters; assay: Test C postemergence; format: in vivo, Chenopodium album
Outline: as §1

[8] = test system: ragweed; assay: Test C postemergence; format: in vivo, Ambrosia elatior
Outline: as §1

[9] = test system: blackgrass; assay: Test C postemergence; format: in vivo, Alopecurus myosuroides
Outline: as §1

[10] = test system: yellow nutsedge; assay: Test C preemergence; format: in vivo, Cyperus esculentus; details: preemergence
Outline: as §1

[11] = test system: yellow nutsedge; assay: Test C postemergence; format: in vivo, Cyperus esculentus
Outline: as §1

[12] = test system: wheat, winter; assay: Test C postemergence; format: in vivo, Triticum aestivum
Outline: as §1

[13] = test system: rice; assay: Test B flooded paddy test; format: in vivo, Oryza sativa; details: Flood, 250 g ai/ha; 0 to 100 scale where 0 is no effect and 100 is complete control
Outline: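 Flooded to 3 cm at the 2-leaf stage, pots received compound through the paddy water and were kept at that depth under greenhouse conditions. After 13–15 days, effect was rated by eye relative to controls, 0 = none and 100 = complete control.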

[14] = test system: soybean; assay: Test C preemergence; format: in vivo, Glycine max; details: preemergence
Outline: as §1

[15] = test system: giant foxtail; assay: Test A preemergence; format: in vivo, Setaria faberii; details: 0 to 100 scale where 0 is no effect and 100 is complete control
Outline: as §2

[16] = 16 g ai/ha, postemergence, 0 is no effect, 100 is complete control
[17] = 31 g ai/ha, postemergence, visual rating, scale 0 to 100 (0 no effect, 100 complete control), 13 to 15 days
[18] = 125 g ai/ha, postemergence, visual rating, scale 0 to 100 (0 no effect, 100 complete control)
[19] = Postemergence, 62 g ai/ha, scale 0 to 100 (0 no effect, 100 complete control)
[20] = 16 g ai/ha, scale 0 to 100 (0 no effect, 100 complete control)
[21] = 62 g ai/ha, scale 0 (no effect) to 100 (complete control)
[22] = 125 g ai/ha, scale 0 (no effect) to 100 (complete control)

FC(F)(F)c1cnn(-c2c(Cl)cccc2Oc2ncc(Cl)cn2)c1 [Compound 167]
Plant response rating (0 to 100), Ryegrass, Italian [1, 16]: 0
Ryegrass, Italian plant response rating [1, 17]: 10
Plant response rating, Ryegrass, Italian [1, 18]: 30
Plant response rating, Ryegrass, Italian [1, 19]: 5
Velvetleaf plant response rating [2, 20]: 45
Velvetleaf plant response rating [2, 21]: 100
Velvetleaf plant response rating [2, 22]: 100
Plant response rating (0 to 100), Pigweed [3, 16]: 80
Pigweed plant response rating [3, 17]: 90
Plant response rating, Pigweed [3, 18]: 98
Plant response rating, Pigweed [3, 19]: 95
Plant response rating (0 to 100), Oat, Wild [4, 16]: 5
Oat, Wild plant response rating [4, 17]: 25
Plant response rating, Oat, Wild [4, 18]: 35
Plant response rating, Oat, Wild [4, 19]: 35
Pigweed plant response rating [5, 20]: 100
Pigweed plant response rating [5, 21]: 100
Pigweed plant response rating [5, 22]: 100
Plant response rating, Corn ([6]; 125 g ai/ha): 10
Corn plant response rating ([6]; 500 g ai/ha): 40
Plant response rating (0 to 100), Lambsquarters [7, 16]: 80
Lambsquarters plant response rating [7, 17]: 90
Plant response rating, Lambsquarters [7, 18]: 100
Plant response rating, Lambsquarters [7, 19]: 98
Plant response rating (0 to 100), Ragweed [8, 16]: 10
Ragweed plant response rating [8, 17]: 10
Plant response rating, Ragweed [8, 18]: 55
Plant response rating, Ragweed [8, 19]: 30
Plant response rating (0 to 100), Blackgrass [9, 16]: 0
Blackgrass plant response rating [9, 17]: 5
Plant response rating, Blackgrass [9, 18]: 30
Plant response rating, Blackgrass [9, 19]: 5
Nutsedge, Yellow plant response rating [10, 20]: 0
Nutsedge, Yellow plant response rating [10, 21]: 10
Nutsedge, Yellow plant response rating [10, 22]: 60
Plant response rating (0 to 100), Nutsedge, Yellow [11, 16]: 0
Nutsedge, Yellow plant response rating [11, 17]: 0
Plant response rating, Nutsedge, Yellow [11, 18]: 20
Plant response rating, Nutsedge, Yellow [11, 19]: 5
Plant response rating (0 to 100), Wheat [12, 16]: 0
Wheat plant response rating [12, 17]: 0
Plant response rating, Wheat [12, 18]: 5
Plant response rating, Wheat [12, 19]: 5
Plant response rating, Rice [13]: 0
Soybean plant response rating [14, 20]: 10
Soybean plant response rating [14, 21]: 90
Soybean plant response rating [14, 22]: 90
Plant response rating, Foxtail, Giant ([15]; 125 g ai/ha): 100
Foxtail, Giant plant response rating ([15]; 500 g ai/ha): 100
